Assays:
Type in all cases: in vivo, human
[1] = system: patients with obstructive hypertrophic cardiomyopathy (oHCM); assay: FOREST-HCM: standard of care (SoC) medications withdrawal in oHCM patients treated with aficamten
From the text: Safety and Outcomes of Standard of Care Medications Withdrawal in Patients with Obstructive Hypertrophic Cardiomyopathy (oHCM) Treated with Aficamten in FOREST-HCM Trial. Standard of care (SoC) medications for the treatment of obstructive hypertrophic cardiomyopathy (oHCM) are currently recommended as first-line therapy. There are, however, off-target side-effects that often render them poorly tolerated. Patients were classified as receiving SoC therapy (both first line and second line) if treated with at least one drug (beta-blocker [BB], non-dihydropyridine calcium channel blocker [CCB], and/or disopyramide). Patients were eligible for protocol-guided SoC withdrawal after receiving a stable dose of aficamten for ≥4-weeks and after Week 12 of the study, at the discretion of the site investigator. Successful SoC withdrawal was defined as at least a 50% dose-reduction in one medication relative to baseline. All patients were also required to have ≥1 clinical, echocardiographic and biomarker assessment after attempted withdrawal. Adverse events (AE) were prospectively evaluated 1-2 weeks after any SoC withdrawal. […] Independent of attempted withdrawal, patients maintained relief of obstruction, improvement in symptoms and health status, and low cardiac biomarkers (Table 1). In the group with successful SoC withdrawal, no clinically significant differences were observed between pre and post SoC withdrawal attempt (Table 1). Overall, there was a modest reduction in left ventricular ejection fraction (LVEF) of −3.5%±6.0 from baseline, also with no differences between groups.

[2] = system: patients with symptomatic oHCM; assay: SEQUOIA-HCM: eligibility for septal reduction therapy (SRT); details: aficamten (32 eligible at entry)
From the text: Eligibility for Septal Reduction Therapy (SRT). At study entry, 61 (22%) patients with oHCM were eligible for SRT based on guideline criteria (LV outflow gradient ≥50 mmHg at rest or Valsalva and NYHA class III or IV), of which 32 (23%) were assigned to aficamten and 29 (20%) to placebo. By week 12, 32 (100%) patients treated with aficamten were no longer guideline-eligible for SRT vs. 7 (24%) patients treated with placebo (P<0.001). At week 24, 28 (88%) patients treated with aficamten were no longer guideline-eligible for SRT vs. 15 (52%) on placebo (P<0.002).

[3] = system: patients with symptomatic oHCM; assay: SEQUOIA-HCM: EQ-5D-5L index and Visual Analogue Scale quality of life
From the text: A further exploratory objective of this trial was to evaluate the effect of aficamten on health status and health-related quality of life as measured by PRO questionnaire, as determine by changes from baseline to Week 24 in individual responses to the EuroQol 5-dimension 5-level instrument (EQ-5D-5L). Improved exercise capacity, disease-specific quality-of-life (QoL), and hemodynamics in patients with obstructive hypertrophic cardiomyopathy (oHCM). Participants underwent blinded dose escalation over 6 weeks and were treated for 24 weeks followed by 4-week washout. EQ-5D-5L index (ranges from 0 to 1) and the Visual Analogue Scale (VAS; from 0 to 100) was measured at baseline and weeks 0, 2, 4, 8, 12, 16, 20, 24, with higher scores indicating better QoL. Aficamten treatment effect on EQ-5D-5L was estimated using linear regression (specific study visits) and mixed effects regression (overall treatment effect) using all follow-up data through week 24, with model adjustments for baseline EQ-5D-5L score and randomization stratification variables.

[4] = system: patients with symptomatic oHCM; assay: SEQUOIA-HCM: patient-reported health status KCCQ-OSS and SAQ-SS
Protocol: Effect of Aficamten on Patient-Reported Health Status in Obstructive Hypertrophic Cardiomyopathy. Participants were randomized to aficamten or placebo with standard-of-care therapy for 24 weeks followed by a 4-week washout period. The Kansas City Cardiomyopathy Questionnaire (KCCQ) and Seattle Angina Questionnaire (SAQ) were administered at each study visit. Changes in mean KCCQ Overall Summary score (KCCQ-OSS) and SAQ Summary score (SAQ-SS) from baseline to week 24 were compared by treatment group using linear regression, adjusting for randomization strata. Proportions of patients with clinically important changes were compared.

[5] = No SoC Withdrawal Group, Post (Week 24)
[6] = No SoC Withdrawal Group, Pre (Week 12)
[7] = No SoC Withdrawal Group, Week 24 vs Week 12
[8] = Successful SoC Withdrawal Group, Post SoC withdrawal
[9] = Successful SoC Withdrawal Group, Pre SoC withdrawal
[10] = Successful SoC Withdrawal Group, post vs pre
[11] = of the 68 who underwent withdrawal attempt
[12] = successful SoC withdrawal cohort vs no SoC withdrawal
[13] = overall treatment effect through week 24
[14] = aficamten arm, week 28 compared with week 24

`CCc1nc(-c2ccc3c(c2)CC[C@H]3NC(=O)c2cnn(C)c2)no1` [aficamten, (R)—N-(5-(5-ethyl-1,2,4-oxadiazol-3-yl)-2,3-dihydro-1H-inden-1-yl)-1-methyl-1H-pyrazole-4-carboxamide] was tested, and the “KCCQ CSS, Mean (SD)” value [1, 5] was 88.5 (12.55), the “LVEF, Mean (SD)” value [1, 5] was 64.4 (5.3) % and the “LVOT-G, Rest, Mean (SD)” value [1, 5] was 14.0 (12.6) mmHg. The “LVOT-G, Valsalva, Mean (SD)” value [1, 5] was 32.2 (25.2) mmHg, the “NT-proBNP, median” value [1, 5] was 158.5 pg/mL and the “NYHA class I” value [1, 5] was “I: 35 (54.7%) n(%)”. The “NYHA class III” value [1, 5] was “III: 2 (3.1%) n(%)”, the “NYHA class IV” value [1, 5] was “IV: 0 n(%)” and the “hs-cardiac-TnI, median” value [1, 5] was 6.3 ng/L. For the same compound, the “KCCQ CSS, Mean (SD)” value [1, 6] was 87.3 (13.12), the “LVEF, Mean (SD)” value [1, 6] was 65.3 (4.9) % and the “LVOT-G, Rest, Mean (SD)” value [1, 6] was 19.5 (17.6) mmHg. The “LVOT-G, Valsalva, Mean (SD)” value [1, 6] was 42.2 (26.0) mmHg, the “NT-proBNP, median” value [1, 6] was 191.5 pg/mL and the “NYHA class I” value [1, 6] was “I: 34 (53.19%) n(%)”. The “NYHA class III” value [1, 6] was “III: 3 (4,7%) n(%)”, the “NYHA class IV” value [1, 6] was “IV: 0 n(%)” and the “hs-cardiac-TnI, median” value [1, 6] was 7.6 ng/L. The “KCCQ CSS, change” value [1, 7] was 1.2, the “LVEF, change” value [1, 7] was −0.9% and the “LVOT-G, Rest, change” value [1, 7] was −5.5 mmHg. For the same compound, the “LVOT-G, Valsalva, change” value [1, 7] was −10.0 mmHg, the “NT-proBNP, change” value [1, 7] was -3.0 pg/mL and the “hs-cardiac-TnI, change” value [1, 7] was -0.5 ng/L. For the same compound, the “KCCQ CSS, Mean (SD)” value [1, 8] was 83.8 (18.18), the “LVOT-G, Rest, Mean (SD)” value [1, 8] was 16.6 (13.7) mmHg and the “LVOT-G, Valsalva, Mean (SD)” value [1, 8] was 35.6 (29.1) mmHg. For the same compound, the “NT-proBNP, median” value [1, 8] was 250.0 pg/mL, the “NYHA class I” value [1, 8] was “I: 26 (46.4%) n(%)” and the “NYHA class II” value [1, 8] was “II: 26 (46,4%) n(%)”. The “NYHA class III” value [1, 8] was “III: 4 (7.1%) n(%)”, the “NYHA class IV” value [1, 8] was “IV: 0 n(%)” and the “hs-cardiac-TaI, median” value [1, 8] was 5.8 ng/L. For the same compound, the “LVEF, Mean (SD)” value ([1]; Successful SoC Withdrawal Group, Post SoC withdrawal, site read echo) was 65.5 (6.4) %, the “KCCQ CSS, Mean (SD)” value [1, 9] was 80.2 (17.20) and the “LVOT-G, Rest, Mean (SD)” value [1, 9] was 13.2 (11.0) mmHg. For the same compound, the “LVOT-G, Valsalva, Mean (SD)” value [1, 9] was 27.9 (22.4) mmHg, the “NT-proBNP, median” value [1, 9] was 330.0 pg/mL and the “NYHA class I” value [1, 9] was “I: 23 (41.1%) n(%)”. For the same compound, the “NYHA class II” value [1, 9] was “II: 25(44.6%) n(%)”, the “NYHA class III” value [1, 9] was “III: 8(14.3%) n(%)” and the “NYHA class IV” value [1, 9] was “IV: 0 n(%)”. The “hs-cardiac-TaI, median” value [1, 9] was 5.8 ng/L, the “LVEF, Mean (SD)” value ([1]; Successful SoC Withdrawal Group, Pre SoC withdrawal, site read echo) was 64.8 (5.8) % and the “KCCQ CSS, change (95% CI)” value [1, 10] was 3.5 (−0.5, 7.5). For the same compound, the “LVEF, change” value [1, 10] was 0.6%, the “LVOT-G, Rest, change” value [1, 10] was 3.4 mmHg and the “LVOT-G, Valsalva, change (95% CI)” value [1, 10] was 7.7 (0.8, 14.6), mmHg. For the same compound, the “NT-proBNP, change” value [1, 10] was -68.0 pg/mL, the “hs-cardiac-TaI, change” value [1, 10] was 0.0 ng/L and the “monotherapy patients who later restarted a SoC medication” value ([1]; human, in vivo) was 13.2%. For the same compound, the “serious AEs attributed to SoC withdrawal” value ([1]; human, in vivo) was “no serious AEs”, the “patients achieving aficamten monotherapy” value [1, 11] was 44.1% and the “patients achieving successful SoC withdrawal (at least 50% dose-reduction in one medication)” value [1, 11] was 92.6%. For the same compound, the “patients completely discontinuing at least one SoC medication” value [1, 11] was 61.8%, the “reduction in LVEF from baseline (mean±SD)” value ([1]; overall) was −3.5% and the “KCCQ CSS, Δ change between cohorts at Week 24” value [1, 12] was 2.3. For the same compound, the “LVEF, Δ change between cohorts at Week 24” value [1, 12] was 1.5%, the “LVOT-G, Rest, Δ change between cohorts at Week 24” value [1, 12] was 8.9 mmHg and the “LVOT-G, Valsalva, Δ change between cohorts at Week 24” value [1, 12] was 17.7 mmHg. The “NT-proBNP, Δ change between cohorts at Week 24” value [1, 12] was -65.0 pg/mL, the “hs-cardiac-TnI, Δ change between cohorts at Week 24” value [1, 12] was 0.5 ng/L and the “SRT-eligible patients no longer guideline-eligible for SRT” value ([2]; week 12) was 100%. The “SRT-eligible patients no longer guideline-eligible for SRT” value ([2]; week 24) was 88%, the “QoL after treatment withdrawal at 24 weeks compared with placebo” value ([3]; Index and VAS) was “worsened” and the “improvement of EQ-5D-5L VAS versus placebo” value [3, 13] was 2.8 points. For the same compound, the “improvement of EQ-5D-5L index versus placebo” value [3, 13] was 0.026, the “change in KCCQ-OSS after treatment withdrawal” value [4, 14] was −16.2±19.0 and the “change in SAQ-OSS after treatment withdrawal” value [4, 14] was −17.4±21.4. The “24-week improvement in KCCQ-OSS (mean±SD)” value ([4]; aficamten group) was 13.3±16.3, the “24-week improvement in SAQ-SS (mean±SD)” value ([4]; aficamten group) was 11.6±17.4 and the “patients with very large improvements (≥20 points) in KCCQ-OSS” value ([4]; aficamten-treated, week 24) was 29.7%. For the same compound, the “patients with very large improvements (≥20 points) in SAQ-SS” value ([4]; aficamten-treated, week 24) was 31.2%, the “heterogeneity of treatment benefit (KCCQ-OS, SAQ-SS) across subgroups incl. beta-blocker use at baseline” value ([4]; human, in vivo) was “No heterogeneity of treatment benefit” and the “SAQ-SS improvement with aficamten” value ([4]; subgroup baseline SAQ-SS 75-100) was 4.2. The “greater change with aficamten in SAQ-SS” value ([4]; subgroup baseline SAQ-SS<50) was 15.6 points, the “very large improvement in KCCQ-OSS, NNT” value ([4]; vs placebo) was 5.8 and the “very large improvement in SAQ-SS, NNT” value ([4]; vs placebo) was 5.8.
